Experimental data from patent US20250339642A1, “CATHETERS” (ConvaTec Limited, priority 2023, published 2025).

Assays:
Type in all cases: cell-based
[1] = tested on: E. faecalis; assay: Rate of kill assessment, direct repeat inoculation of medium containing catheter; conditions: for Reduction in microbial colony forming unit (CFU) counts: reinoculation at 24 hours; for Time up to which rapid kill within 5 seconds following inoculation was observed: repeat inoculation, sample taken 5 seconds after each inoculation
Protocol: (§1) To assess the sterilisation potential of the medium comprising chlorine-containing species, a microbiology assessment was conducted which consisted of rate of kill assessments against repeat inoculation of E. coli and E. faecalis. These organisms were selected as they are commonly identified in catheter associated urinary tract infections. The selection also covers both gram-positive and gram-negative species to test the broad spectrum antimicrobial performance of the medium.
(§2) Intermittent urinary catheters, as used for Example 1, were provided and submerged in an aqueous medium comprising sodium hypochlorite and sodium chloride. The media comprising the catheters were respectively inoculated with the two microorganisms.
(§3) A direct inoculation method was applied against each microorganism. The test organisms were reinoculated following 1, 2, 3, 4, 5, 6, and 24 hours. Following each inoculation, a sample was taken after 5 seconds, 1, 5, 10 and 15 minutes to evaluate the rate of kill.
(§4) A microbiology assessment was performed using a medium of the invention comprising hypochlorous acid in an analogous manner to that performed for Example 2. However, for this test, following each inoculation, a sample was only taken after 5 seconds to evaluate the rate of kill. Further, in addition to the previous microorganisms tested, a further gram-positive organism, S. aureus, was tested.
(§5) A microbiology assessment was performed using a medium comprising chlorine dioxide in an analogous manner to that performed for Example 5.
(§6) A microbiology assessment was performed using the media comprising hypochlorous acid in an analogous manner to that performed for Example 2. However, for this test, following each inoculation, samples were taken after 5 seconds, 30 seconds, 1, 2, and 5 minutes to evaluate the rate of kill.

[2] = tested on: E. coli; assay: as above; conditions: sample taken 5 seconds after each inoculation
Protocol: as §1, §2, §3, §4, §5, §6

[3] = tested on: S. aureus; assay: as above; conditions: sample taken 5 seconds after each inoculation
Protocol: as §4, §5

[4] = tested on: Escherichia coli NCIMB 14067; assay: In vitro direct inoculation method, bacterial levels over 5 minutes
Protocol: (§7) An in vitro direct inoculation method was used to assess the antimicrobial activity of sulfanilamide in an intermittent urinary catheter scenario against […] Escherichia coli NCIMB 14067 and […] Enterococcus faecalis NCTC 12201; two microorganisms associated with urinary tract infections. Sulfanilamide concentrations of 0.1% and 0.01% were tested and bacterial levels monitored over a period of 5 minutes.
(§8) Representative colonies of the challenge microorganisms, from an 18-24 hour challenge culture plate, were dispersed in MRD to obtain an optical density (OD540nm) equivalent to approximately 1×10^8 CFU/mL. This was diluted to obtain a working concentration of 1×10^6 CFU/mL. A quantitative count was performed to confirm the inoculum level.
(§9) The challenge organism was prepared in MRD to a concentration of approximately 1×10^6 CFU/mL. This suspension was added in a 1 mL volume to 9 mL of sample (n=3 per sample, n=2 per control) in a sterile 30 mL universal and pipetted up and down to mix. Following each testing period, 5 seconds, 30 seconds, 1 minute, 2 minutes and 5 minutes, 100 μL of the test solution was transferred to 0.9 mL and 9.9 mL volumes of DENB (1:10 and 1:100 dilutions respectively). The most appropriate dilutions were inoculated (100 μL) onto duplicate pre-dried (tryptone soy agar) TSA plates and the inoculum spread using separate sterile L-shaped spreaders (for 10^−1 and 10^−2 dilutions, 0.5 mL were placed onto duplicate plates). The TSA plates were allowed to dry before being inverted and incubated at 35±3° C. for at least 48 hours. Following the incubation period, the number of bacterial colonies were counted on the most appropriate dilution for each dressing type i.e. between 25-250 CFU/plate.
(§10) The samples tested were: 0.1% sulfanilamide in sterile deionised water (SDW); 0.01% sulfanilamide in SDW; 100 ppm hypochlorous acid in SDW; and a SDW control.

[5] = tested on: Enterococcus faecalis NCTC 12201; assay: as above
Protocol: as §7, §8, §9, §10

[6] = tested on: E. coli NCIMB 14067; assay: Antimicrobial efficacy at very low concentrations, suspension test with total viable counts
Protocol: The antimicrobial efficacy of hypochlorous acid was tested at even lower concentrations (10, 25, and 50 ppm) against the challenging organism E. coli NCIMB 14067.
The representative colonies of E. coli NCIMB 14067 were dispersed in maximum recovery diluent (MRD) to obtain an optical density (OD540nm) equivalent to approximately 1×10^6 CFU/mL. A quantitative plate count was performed on this suspension to determine the total number of viable organisms inoculated. A new suspension was prepared for each concentration tested.
A 1000 ppm hypochlorous acid solution was diluted in sterile deionised water to provide the respective 10, 25 and 50 ppm hypochlorous acid solutions.
The hypochlorous acid samples were aliquoted into 9 mL volumes and 1 mL of the challenge organism suspension was added and mixed (the final number of bacteria present is now approximately 1×10^5 CFU/mL). Following 5, 30 seconds, 1, 2, and 5 minutes, 100 μL volumes were sampled and transferred to 0.9 mL and 9.9 mL of Dey-Engley Neutralising Broth (DENB) (to provide a 1:10 and 1:100 dilution respectively), and total viable counts were performed to establish the amount present. The plates were left to dry before being inverted and incubated at 35±3° C. for at least 48 hours. A negative control was also tested whereby 1 mL of the challenge organism suspension was added to 9 mL of MRD and tested as previously described. Following the incubation period, the number of CFUs were counted on the most appropriate dilution for each sample i.e. between 25-250 CFU/plate.

[7] = 100 ppm in SDW, within 5 seconds and for the remaining testing period
[8] = both concentrations tested (0.1% and 0.01% in SDW), any timepoint, 5 seconds to 5 minutes

| SMILES | Reduction in microbial colony forming unit (CFU) counts ([1]; after around 30 seconds of inoculation) | Time up to which rapid kill within 5 seconds following inoculation was observed [1] | Time up to which rapid kill within 5 seconds following inoculation was observed [2] | Time up to which rapid kill within 5 seconds following inoculation was observed [3] | Numbers of challenge organism [4, 7] | Numbers of challenge organism [5, 7] | Reduction in microbial colony forming unit (CFU) counts ([1]; after 5 minutes of inoculation) | Bacterial level at the 1 minute timepoint ([6]; 10 ppm, about 1×10^5 CFU/mL inoculum) | Numbers of bacteria after 30 seconds ([6]; 25 ppm, about 1×10^5 CFU/mL inoculum) | Numbers of bacteria after 30 seconds ([6]; 50 ppm, about 1×10^5 CFU/mL inoculum) | CFU/mL of negative control (MRD) larger than for the samples ([6]; all concentrations (10, 25, 50 ppm) and time points tested) | Decrease in challenge organism numbers compared to the control [4, 8] | Decrease in challenge organism numbers compared to the control [5, 8] |
| --- | --- | --- | --- | --- | --- | --- | --- | --- | --- | --- | --- | --- | --- |
| [O][Cl+][O-] [chlorine dioxide] | 4 orders of magnitude | up to 6 hours | up to 24 hours | up to 6 hours | – | – | – | – | – | – | – | – | – |
| OCl [hypochlorous acid] | – | up to 6 hours | up to 24 hours | up to 6 hours | undetectable | undetectable | over 3 orders of magnitude | undetectable | undetectable | undetectable | over 4 orders of magnitude | – | – |
| Nc1ccc(S(N)(=O)=O)cc1 [sulfanilamide, reference compound] | – | – | – | – | – | – | – | – | – | – | – | no decrease | no decrease |
